Data published in patent US20250034136A1 (Nimbus Wadjet, Inc., priority 2023, published 2025).
pEC50, pIC50: −log10 of the molar value. Where two headings read alike, the source gives them in different places.

Key:
[1] = tested on: p21 induction in HCT116 cells; assay: p21 induction in HCT116 cells; format: cell-based; settings: read-out: P21_EC50
In short: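 EC50 from non-linear curve fit of p21 immunofluorescence (800 nm), with GAPDH (700 nm) read alongside. DMSO and a reference WRN inhibitor served as low and high controls. Cells (2,000/well) got 11 compound concentrations in duplicate for 24 h at 37 °C.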

[2] = biological target: WRN (BV08), human Werner helicase (Uniprot Q14191, amino acids 517-1235 with L1074F point mutation) (Homo sapiens (Human), UniProt Q14191, L1074F); assay: WRN (BV08) ADP-Glo assay; format: biochemical; settings: class symbols A-E, read-out: ADP-Glo_hWRN_IC50
Chain of WRN (BV08), human Werner helicase (Uniprot Q14191, amino acids 517-1235 with L1074F point mutation) (Q14191 other isoform, or with tags, fused parts or gaps L1074F (already in the parent)): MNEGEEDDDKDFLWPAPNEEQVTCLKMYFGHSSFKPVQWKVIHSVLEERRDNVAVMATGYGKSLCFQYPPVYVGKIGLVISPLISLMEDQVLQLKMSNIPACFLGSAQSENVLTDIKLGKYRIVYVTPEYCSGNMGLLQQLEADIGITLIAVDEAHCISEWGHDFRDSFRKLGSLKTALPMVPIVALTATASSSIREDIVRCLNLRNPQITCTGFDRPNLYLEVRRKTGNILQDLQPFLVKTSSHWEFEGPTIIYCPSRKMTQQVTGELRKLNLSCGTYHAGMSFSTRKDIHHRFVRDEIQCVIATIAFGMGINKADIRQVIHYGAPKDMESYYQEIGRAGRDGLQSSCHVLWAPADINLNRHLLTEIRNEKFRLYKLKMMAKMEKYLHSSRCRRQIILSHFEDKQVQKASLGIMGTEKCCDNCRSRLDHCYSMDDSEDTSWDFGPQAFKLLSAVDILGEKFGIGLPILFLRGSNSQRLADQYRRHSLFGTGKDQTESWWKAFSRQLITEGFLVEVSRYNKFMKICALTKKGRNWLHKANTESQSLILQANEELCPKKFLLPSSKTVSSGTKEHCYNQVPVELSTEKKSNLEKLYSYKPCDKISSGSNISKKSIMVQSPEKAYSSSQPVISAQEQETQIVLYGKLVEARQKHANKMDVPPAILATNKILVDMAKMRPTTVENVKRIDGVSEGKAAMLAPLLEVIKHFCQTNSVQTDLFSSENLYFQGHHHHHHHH

[3] = Homo sapiens, HCT-116, 24 h, HCT116 cells, 24 h compound incubation
[4] = HCT116 cells, 24 h compound incubation

Structure (SMILES)	pEC50 [1, 3]	pIC50 [2]	pEC50 [1, 4]	pEC50 ([1]; Homo sapiens, HCT-116, 24 h)
CCc1c(N2CCN(C(=O)c3ncnc(C)c3O)[C@H](C)[C@H]2C)c(=O)c2nc(N(C)C)cnc2n1CC(=O)Nc1ccc(C(F)(F)F)cc1Cl (single isomer, unassigned) [I-233, N-(2-chloro-4-(trifluoromethyl)phenyl)-2-(2-(dimethylamino)-6-ethyl-7-(4-(5-hydroxy-6-methylpyrimidine-4-carbonyl)-2,3-dimethylpiperazin-1-yl)-8-oxopyrido[2,3-b]pyrazin-5(8H)-yl)acetamide]	< 5.30	7.30 to 8.30	–	–
CCc1c(N2CCN(C(=O)c3ncnc(C)c3O)[C@@H](C)[C@@H]2C)c(=O)c2nc(N(C)C)cnc2n1CC(=O)Nc1ccc(C(F)(F)F)cc1Cl (single isomer, unassigned) [I-234, N-(2-chloro-4-(trifluoromethyl)phenyl)-2-(2-(dimethylamino)-6-ethyl-7-(4-(5-hydroxy-6-methylpyrimidine-4-carbonyl)-2,3-dimethylpiperazin-1-yl)-8-oxopyrido[2,3-b]pyrazin-5(8H)-yl)acetamide]	5.70 to 6.30	7.30 to 8.30	–	–
CCc1c(N2CCN(C(=O)c3ncnc(C)c3O)CC2)c(=O)c2nc([C@H]3CC3(F)F)cnc2n1CC(=O)Nc1ccc(C(F)(F)F)cc1Cl (single isomer, unassigned) [I-238]	< 5.30	7.30 to 8.30	–	–
CCc1c(N2C[C@@H]3CC[C@H]2CN3C(=O)c2ncnc(C)c2O)c(=O)c2nc(N(C)C)cnc2n1CC(=O)Nc1ccc(C(F)(F)F)cc1Cl (single isomer, unassigned) [I-247, N-(2-chloro-4-(trifluoromethyl)phenyl)-2-(2-(dimethylamino)-6-ethyl-7-(5-(5-hydroxy-6-methylpyrimidine-4-carbonyl)-2,5-diazabicyclo[2.2.2]octan-2-yl)-8-oxopyrido[2,3-b]pyrazin-5(8H)-yl)acetamide]	< 5.30	6.30 to 7.00	–	–
CCc1c(N2CCN(C(=O)c3c(OC)ncc(C)c3O)[C@@H]3CCC[C@@H]32)c(=O)c2nc(N(C)C)cnc2n1CC(=O)Nc1ccc(C(F)(F)F)cc1Cl (single isomer, unassigned) [I-251, N-(2-chloro-4-(trifluoromethyl)phenyl)-2-(2-(dimethylamino)-6-ethyl-7-(4-(4-hydroxy-2-methoxy-5-methylnicotinoyl)octahydro-1H-cyclopenta[b]pyrazin-1-yl)-8-oxopyrido[2,3-b]pyrazin-5(8H)-yl)acetamide]	> 6.30	7.30 to 8.30	–	–
CCc1c(N2CCN(C(=O)c3c(OC)ncc(C)c3O)[C@H]3CCC[C@H]32)c(=O)c2nc(N(C)C)cnc2n1CC(=O)Nc1ccc(C(F)(F)F)cc1Cl (single isomer, unassigned) [I-252, N-(2-chloro-4-(trifluoromethyl)phenyl)-2-(2-(dimethylamino)-6-ethyl-7-(4-(4-hydroxy-2-methoxy-5-methylnicotinoyl)octahydro-1H-cyclopenta[b]pyrazin-1-yl)-8-oxopyrido[2,3-b]pyrazin-5(8H)-yl)acetamide]	5.30 to 5.70	6.30 to 7.00	–	–
CCc1c(N2C[C@H]3C[C@@H]2CN3C(=O)c2ncnc(C)c2O)c(=O)c2nc(N(C)C)cnc2n1CC(=O)Nc1ccc(C(F)(F)F)cc1Cl (single isomer, unassigned) [I-256]	< 5.30	6.30 to 7.00	–	–
CCc1c(N2C[C@H]3C[C@@H]2CN3C(=O)c2ncnc(C)c2O)c(=O)c2nc(N(C)C)cnc2n1CC(=O)Nc1ccc(C(F)(F)F)cc1Cl (single isomer, unassigned) [I-257]	–	< 6.30	< 5.30	–
CCc1c([C@@]23CCN(C(=O)c4ncnc(C)c4O)C[C@@H]2C3)c(=O)c2nc(N(C)C)cnc2n1CC(=O)Nc1ccc(C(F)(F)F)cc1Cl (single isomer, unassigned) [I-276, N-(2-chloro-4-(trifluoromethyl)phenyl)-2-(2-(dimethylamino)-6-ethyl-7-(3-(5-hydroxy-6-methylpyrimidine-4-carbonyl)-3-azabicyclo[4.1.0]heptan-6-yl)-8-oxopyrido[2,3-b]pyrazin-5(8H)-yl)acetamide]	5.70 to 6.30	7.30 to 8.30	–	–
CCc1c([C@]23CCN(C(=O)c4ncnc(C)c4O)C[C@H]2C3)c(=O)c2nc(N(C)C)cnc2n1CC(=O)Nc1ccc(C(F)(F)F)cc1Cl (single isomer, unassigned) [I-277, N-(2-chloro-4-(trifluoromethyl)phenyl)-2-(2-(dimethylamino)-6-ethyl-7-(3-(5-hydroxy-6-methylpyrimidine-4-carbonyl)-3-azabicyclo[4.1.0]heptan-6-yl)-8-oxopyrido[2,3-b]pyrazin-5(8H)-yl)acetamide]	5.70 to 6.30	7.30 to 8.30	–	–
CCc1c(N2CCN(C(=O)c3ncnc(C)c3O)C3COCC32)c(=O)c2nc(N(C)C)cnc2n1CC(=O)Nc1ccc(C(F)(F)F)cc1Cl (single isomer, unassigned) [I-278, N-(2-chloro-4-(trifluoromethyl)phenyl)-2-(2-(dimethylamino)-6-ethyl-7-(4-(5-hydroxy-6-methylpyrimidine-4-carbonyl)hexahydrofuro[3,4-b]pyrazin-1(2H)-yl)-8-oxopyrido[2,3-b]pyrazin-5(8H)-yl)acetamide]	–	7.30 to 8.30	5.30 to 5.70	–
CCc1c(N2CCN(C(=O)c3ncnc(C)c3O)C3COCC32)c(=O)c2nc(N(C)C)cnc2n1CC(=O)Nc1ccc(C(F)(F)F)cc1Cl (single isomer, unassigned) [I-279, N-(2-chloro-4-(trifluoromethyl)phenyl)-2-(2-(dimethylamino)-6-ethyl-7-(4-(5-hydroxy-6-methylpyrimidine-4-carbonyl)hexahydrofuro[3,4-b]pyrazin-1(2H)-yl)-8-oxopyrido[2,3-b]pyrazin-5(8H)-yl)acetamide]	–	6.30 to 7.00	< 5.30	–
CCc1c(N2CCN(C(=O)c3ncnc(C)c3O)C3COCC32)c(=O)c2nc(N(C)C)cnc2n1CC(=O)Nc1ccc(C(F)(F)F)cc1Cl (single isomer, unassigned) [I-294, N-(2-chloro-4-(trifluoromethyl)phenyl)-2-(2-(dimethylamino)-6-ethyl-7-(4-(5-hydroxy-6-methylpyrimidine-4-carbonyl)hexahydrofuro[3,4-b]pyrazin-1(2H)-yl)-8-oxopyrido[2,3-b]pyrazin-5(8H)-yl)acetamide]	–	< 6.30	< 5.30	–
CCc1c(N2CCN(C(=O)c3ncnc(C)c3O)[C@H]3CC(F)(F)C[C@@H]32)c(=O)c2nc(N(C)C)cnc2n1CC(=O)Nc1ccc(C(F)(F)F)cc1Cl (single isomer, unassigned) [I-296, N-(2-chloro-4-(trifluoromethyl)phenyl)-2-(7-(6,6-difluoro-4-(5-hydroxy-6-methylpyrimidine-4-carbonyl)octahydro-1H-cyclopenta[b]pyrazin-1-yl)-2-(dimethylamino)-6-ethyl-8-oxopyrido[2,3-b]pyrazin-5(8H)-yl)acetamide]	5.70 to 6.30	7.30 to 8.30	–	–
CCc1c(N2CCN(C(=O)c3ncnc(C)c3O)[C@@H]3CC(F)(F)C[C@H]32)c(=O)c2nc(N(C)C)cnc2n1CC(=O)Nc1ccc(C(F)(F)F)cc1Cl (single isomer, unassigned) [I-297, N-(2-chloro-4-(trifluoromethyl)phenyl)-2-(7-(6,6-difluoro-4-(5-hydroxy-6-methylpyrimidine-4-carbonyl)octahydro-1H-cyclopenta[b]pyrazin-1-yl)-2-(dimethylamino)-6-ethyl-8-oxopyrido[2,3-b]pyrazin-5(8H)-yl)acetamide]	< 5.30	6.30 to 7.00	–	–
CCc1c(N2CCN(C(=O)c3ncnc(C)c3O)[C@@H](COC)C2)c(=O)c2nc(N(C)C)cnc2n1CC(=O)Nc1ccc(C(F)(F)F)cc1Cl (single isomer, unassigned) [I-303, N-(2-chloro-4-(trifluoromethyl)phenyl)-2-(2-(dimethylamino)-6-ethyl-7-(4-(5-hydroxy-6-methylpyrimidine-4-carbonyl)-3-(methoxymethyl)piperazin-1-yl)-8-oxopyrido[2,3-b]pyrazin-5(8H)-yl)acetamide]	< 5.30	7.00 to 7.30	–	–
CCc1c(N2CCN(C(=O)c3ncnc(C)c3O)CC2)c(=O)c2nc(C3CC3(F)F)cnc2n1CC(=O)Nc1ccc(C(F)(F)F)cc1Cl (stereo in doubt) [I-237, N-[2-chloro-4-(trifluoromethyl)phenyl]-2-{2-[(1R)-2,2-difluorocyclopropyl]-6-ethyl-7-[4-(5-hydroxy-6-methylpyrimidine-4-carbonyl)piperazin-1-yl]-8-oxo-5H,8H-pyrido[2,3-b]pyrazin-5-yl}acetamide]	< 5.30	7.30 to 8.30	–	–
CCc1c(N2CCN(C(=O)c3ncnc(C)c3O)CC2)c(=O)c2ncc(C)nc2n1CC(=O)Nc1ccc(C(F)(F)F)cc1Cl [I-1, N-(2-chloro-4-(trifluoromethyl)phenyl)-2-(6-ethyl-7-(4-(5-hydroxy-6-methylpyrimidine-4-carbonyl)piperazin-1-yl)-3-methyl-8-oxopyrido[2,3-b]pyrazin-5(8H)-yl)acetamide]	–	7.30 to 8.30	–	5.30 to 5.70
CCc1c(N2CCN(C(=O)c3cnn(C)c3)CC2)c(=O)c2ncc(C)nc2n1CC(=O)Nc1ccc(C(F)(F)F)cc1Cl [I-2, N-(2-chloro-4-(trifluoromethyl)phenyl)-2-(6-ethyl-3-methyl-7-(4-(1-methyl-1H-pyrazole-4-carbonyl)piperazin-1-yl)-8-oxopyrido[2,3-b]pyrazin-5(8H)-yl)acetamide]	< 5.30	7.00 to 7.30	–	–
CCc1c(N2CCN(C(=O)c3ncccc3O)CC2)c(=O)c2ncc(C)nc2n1CC(=O)Nc1ccc(C(F)(F)F)cc1Cl [I-3, N-(2-chloro-4-(trifluoromethyl)phenyl)-2-(6-ethyl-7-(4-(3-hydroxypicolinoyl)piperazin-1-yl)-3-methyl-8-oxopyrido[2,3-b]pyrazin-5(8H)-yl)acetamide]	< 5.30	7.30 to 8.30	–	–
